Source: patent US9387219B2, “Edible composition” (Conopco, Inc., priority 2011, dated 2016)

What was measured:
GLUT2 = molecular target: T1, GLUT2 (Homo sapiens, UniProt P11168); experiment: Glucose transport inhibitor cell screening assay, 25 mM D-glucose for 30 minutes (GLUT2 inhibition); assay type: cell-based; details: for inhibition at 150 µM / % Glucose Transport inhibition 25 mM: differentiated Caco-2 monolayer, 30 minutes, active at 150 uM; for GLUT2 inhibitory activity (in words): Caco-2 cell model
T1 construct: endogenous in cells; host or cells: differentiated Caco-2 cell monolayers (ATCC)
T1 sequence (P11168 1-524): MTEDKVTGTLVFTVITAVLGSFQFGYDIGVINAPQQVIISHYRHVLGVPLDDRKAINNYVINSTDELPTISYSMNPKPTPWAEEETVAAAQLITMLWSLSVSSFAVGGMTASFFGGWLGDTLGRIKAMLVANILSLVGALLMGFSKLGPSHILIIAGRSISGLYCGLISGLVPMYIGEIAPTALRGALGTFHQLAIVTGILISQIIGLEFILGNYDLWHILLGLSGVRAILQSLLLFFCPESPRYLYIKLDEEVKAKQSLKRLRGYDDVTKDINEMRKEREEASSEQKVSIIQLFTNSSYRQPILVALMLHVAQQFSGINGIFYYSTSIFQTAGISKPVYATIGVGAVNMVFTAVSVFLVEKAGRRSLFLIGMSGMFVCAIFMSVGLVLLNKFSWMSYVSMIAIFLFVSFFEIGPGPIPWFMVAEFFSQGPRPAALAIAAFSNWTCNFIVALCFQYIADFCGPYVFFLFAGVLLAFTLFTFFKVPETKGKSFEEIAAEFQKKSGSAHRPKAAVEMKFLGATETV
Procedure: (§1) Human epithelial colorectal adenocarcinoma (Caco-2) cells were obtained from the American Type Culture Collection (ATCC) and cultured in Growth Medium consisting of Dulbecco's modified Eagle's medium (containing Glutamax-1, 4.5 g/L D-glucose and 25 mM 4-(2-hydroxyethyl)-1-piperazine ethanesulphonic acid (Hepes) (Invitrogen)), 10% foetal bovine serum (Sigma), 1% non-essential amino acids (Invitrogen) and 1 mM sodium pyruvate (Sigma)). The cells were routinely passaged at approximately 80% confluence using TrypLE™ Express Stable Trypsin-Like Enzyme (Invitrogen) to detach the cells, and seeded at approximately 114 cells per mm^2 in fresh tissue culture flasks. Only cells between the passage numbers 45 and 49 were used for experiments.
(§2) Corning® HTS Transwell® 96 well permeable insert supports (Sigma) were collagen coated with 40 μl of 50 μg/ml rat tail collagen type I (BD Biosciences) in 0.02 M acetic acid for one hour at room temperature under sterile conditions. The inserts were washed twice in phosphate buffered saline (PBS (Invitrogen)) and the Caco-2 cells seeded into the inserts at 9.6×10^5 cell/ml (75 μl per insert) in Growth Medium and 30 ml of Growth Medium added to the feeder plate below. The cells were left to attach to the collagen matrix and form monolayers over 48 hours at 37° C., 5% CO2. Both inserts and feeder plate were washed in PBS and the cells incubated with BD Entero-STIM™ Enterocyte Differentiation Medium containing MITO+™ Serum Extender solution (both BD Biosciences), 75 μl per insert and 30 ml in the feeder plate, for a further 48 hours at 37° C., 5% CO2.
(§3) Differentiated cell monolayers were washed gently in Dulbecco's Phosphate Buffered Saline containing CaCl2 and MgCl2 (PBS(+) (Invitrogen)) and the inserts transferred to a new Corning® HTS Transwell®-96 well receiver plate (Sigma). The cells were incubated with fresh PBS(+) (75 μl per insert and 225 μl per well) for 60 minutes at 37° C., 5% CO2. The PBS(+) was gently aspirated and replaced with 75 μl per insert of either 5 mM D-glucose (Sigma)±test active or 25 mM D-glucose±test active in triplicate and 225 μl per well of PBS(+) quickly added to each well. The 5 mM glucose wells and the 25 mM glucose wells were incubated at 37° C., 5% CO2 for 15 minutes and 30 minutes, respectively. Details of all the actives tested are found in table 1. The cell inserts were transferred to a new receiver plate, the supernatant gently aspirated from the cells and replaced with 100 μl of 100 μM of Lucifer Yellow (Sigma) solution to confirm the integrity of the monolayers. 225 μl of PBS(+) was added to each well and incubated at 37° C., 5% CO2 for 1 hour. The cell inserts were then discarded and the permeability of the membranes to Lucifer Yellow checked by measuring the fluorescence of the samples at 485 nm (excitation) and 530 nm (emission) on a Spectramax Gemini EM fluorescence microplate reader.
(§4) The amount of glucose transported across the cell monolayers was measured using a glucose assay based on Invitrogen's Amplex Red Glucose/Glucose oxidase Assay Kit. Briefly, 50 μl of each test sample was transferred to a black sided/clear bottom 96-well plate (Greiner Bio-One) to which 100 μl of reaction buffer (0.5 μl 10 mM Ampliflu Red, 1 μl 10 U/ml Horse Radish peroxidase, 1 μl 100 U/ml glucose oxidase and 97.5 μl PBS (all Sigma)) was added. After 10 minutes incubation at room temperature, the fluorescence of the samples were measured at 530 nm (excitation) and 590 nm (emission) on a Spectramax Gemini EM fluorescence microplate reader and the glucose concentration extrapolated from a standard curve.
(§5) At higher D-glucose concentrations, the SGLT1 transporter becomes saturated and consequently the majority of glucose transport across the monolayer is driven by the low affinity, high capacity GLUT2 transporter that is targeted to the apical membrane only following an initial SGLT1-dependent transport of glucose.

SGLT1 = molecular target: T2, SGLT1 (Homo sapiens, UniProt P13866); experiment: Glucose transport inhibitor cell screening assay, 5 mM D-glucose for 15 minutes (SGLT1 inhibition); assay type: cell-based; details: for Class (assigned class of transporter inhibited): assigned from % inhibition at 5 mM and 25 mM D-glucose in Caco-2 cells; for inhibition at 300 µM: differentiated Caco-2 monolayer, 15 minutes, active at 300 uM; for inhibition at 300 µM / SGLT1 inhibitory activity (in words): 5 mM D-glucose; for SGLT1 inhibitory activity (in words): Caco-2 cell model
T2 construct: endogenous in cells; host or cells: differentiated Caco-2 cell monolayers (ATCC)
T2 sequence (P13866 1-664): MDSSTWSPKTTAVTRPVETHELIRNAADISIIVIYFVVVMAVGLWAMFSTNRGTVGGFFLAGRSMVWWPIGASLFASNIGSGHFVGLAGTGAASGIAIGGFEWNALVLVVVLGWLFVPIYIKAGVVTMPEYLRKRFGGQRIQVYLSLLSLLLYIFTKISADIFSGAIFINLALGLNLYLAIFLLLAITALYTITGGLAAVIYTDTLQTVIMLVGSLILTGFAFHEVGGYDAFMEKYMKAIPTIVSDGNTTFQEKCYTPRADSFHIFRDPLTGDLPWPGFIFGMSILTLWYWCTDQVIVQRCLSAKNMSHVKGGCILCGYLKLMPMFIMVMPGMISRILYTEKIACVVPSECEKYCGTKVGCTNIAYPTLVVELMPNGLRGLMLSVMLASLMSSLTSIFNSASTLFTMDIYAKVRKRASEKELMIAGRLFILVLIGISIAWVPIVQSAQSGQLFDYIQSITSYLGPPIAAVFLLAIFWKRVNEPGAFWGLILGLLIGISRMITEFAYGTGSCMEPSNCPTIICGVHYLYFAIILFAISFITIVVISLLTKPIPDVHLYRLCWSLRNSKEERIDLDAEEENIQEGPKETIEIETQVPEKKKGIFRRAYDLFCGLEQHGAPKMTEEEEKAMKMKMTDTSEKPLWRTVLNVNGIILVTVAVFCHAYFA
Procedure: as §1, §2, §3, §4, §5

inhibition at 150 µM (GLUT2) [%] | inhibition at 300 µM (SGLT1) [%] | % Glucose Transport inhibition 25 mM (GLUT2) [%] | SGLT1 inhibitory activity (in words) (SGLT1) | SMILES | Class (assigned class of transporter inhibited) (SGLT1) | GLUT2 inhibitory activity (in words) (GLUT2)
57.7 | 56.5 | – | – | O=c1c(-c2ccc(O)cc2)coc2cc(O)cc(O)c12 [Genistein] | GLUT2 (GLUT2 inhibitors having ≧20% inhibition at both 5 mM and 25 mM D-glucose levels) | –
48.1 | 47.7 | – | – | O=C1C[C@@H](c2ccccc2)Oc2cc(O)cc(O)c21 [Pinocembrin] | GLUT2 (GLUT2 inhibitors having ≧20% inhibition at both 5 mM and 25 mM D-glucose levels) | –
63.2 | 77.4 | – | – | O=c1cc(-c2ccc(O)c(O)c2)oc2cc(O)cc(O)c12 [Luteolin] | GLUT2 (GLUT2 inhibitors having ≧20% inhibition at both 5 mM and 25 mM D-glucose levels) | –
– | – | 4.98 | inhibition of SGLT1 | O=C1C[C@@H](c2ccc(O)c(O)c2)Oc2cc(O[C@@H]3O[C@H](CO)[C@@H](O)[C@H](O)[C@H]3O)cc(O)c21 [Eriodictiol-7-O-glucoside] | SGLT1 | –
– | – | – | absence of SGLT1 inhibitory activity | C[C@@H]1O[C@@H](OC[C@H]2O[C@@H](Oc3cc4c(O)cc(O)cc4[o+]c3-c3ccc(O)c(O)c3)[C@H](O)[C@@H](O)[C@@H]2O)[C@H](O)[C@H](O)[C@H]1O [Cyanidin-3-rutinoside] | None | –
– | – | – | inhibition of SGLT1 | OC[C@H]1O[C@@H](Oc2cc3c(O)cc(O)cc3[o+]c2-c2ccc(O)c(O)c2)[C@H](O)[C@@H](O)[C@@H]1O [Cyanidin-3-glucoside] | SGLT1 | –
49.3 | 56.8 | – | – | O=c1cc(-c2ccc(O)cc2)oc2cc(O)cc(O)c12 [Apigenin] | GLUT2 (GLUT2 inhibitors having ≧20% inhibition at both 5 mM and 25 mM D-glucose levels) | –
– | – | 15.86 | – | Oc1cc(O)c2cc(O)c(-c3cc(O)c(O)c(O)c3)[o+]c2c1 [Delphinindin] | – | –
– | – | – | destroys this inhibitory action | O=c1c(O[C@@H]2O[C@H](CO)[C@@H](O)[C@H](O)[C@H]2O)c(-c2ccc(O[C@@H]3O[C@H](CO)[C@@H](O)[C@H](O)[C@H]3O)c(O)c2)oc2cc(O)cc(O)c12 [Quercetin-3,4′-diglucoside] | None | –
57 | 69 | – | – | O=C1C[C@@H](c2ccc(O)cc2)Oc2cc(O)cc(O)c21 [Naringenin] | GLUT2 (GLUT2 inhibitors having ≧20% inhibition at both 5 mM and 25 mM D-glucose levels) | –
32.4 | 26 | – | – | O=c1c(O)c(-c2ccc(O)cc2)oc2cc(O)cc(O)c12 [Kaempferol] | GLUT2 (GLUT2 inhibitors having ≧20% inhibition at both 5 mM and 25 mM D-glucose levels) | –
– | – | 12.81 | – | O=c1cc(-c2ccc(O)cc2)oc2cc(OC3O[C@H](CO)[C@@H](O)[C@H](O)[C@H]3O)cc(O)c12 (stereo partly drawn) [Apigenin-7-glucoside] | – | –
– | – | – | lack of SGLT1 inhibitory activity | OC[C@H]1O[C@@H](Oc2ccc(O)cc2)[C@H](O)[C@@H](O)[C@@H]1O [arbutin] | – | –
– | – | – | no inhibitory activity | O=C(/C=C/c1ccc(O)c(O)c1)O[C@H](Cc1ccc(O)c(O)c1)C(=O)O [rosmarinic acid] | – | no inhibitory activity
74.4 | 72.3 | – | – | COc1ccc([C@@H]2CC(=O)c3c(O)cc(O)cc3O2)cc1O [Hesperetin] | GLUT2 (GLUT2 inhibitors having ≧20% inhibition at both 5 mM and 25 mM D-glucose levels) | –
– | – | – | inhibition of SGLT1 | OC[C@H]1O[C@@H](Oc2cc3c(O)cc(O)cc3[o+]c2-c2cc(O)c(O)c(O)c2)[C@H](O)[C@@H](O)[C@@H]1O [Delphinidin-3-glucoside] | SGLT1 | –
– | 4.07 | – | – | Oc1ccc(-c2[o+]c3cc(O)cc(O)c3cc2O)cc1 [Pelargonidin] | – | –
– | – | – | inhibition of SGLT1 | O=c1c(-c2ccc(O)cc2)coc2c([C@@H]3O[C@H](CO)[C@@H](O)[C@H](O)[C@H]3O)c(O)ccc12 [Daidze in-8-C-glucoside] | SGLT1 | –

SMILES | inhibition at 150 µM (GLUT2) [%] | inhibition at 300 µM (SGLT1) [%] | % Glucose Transport inhibition 25 mM (GLUT2) [%] | SGLT1 inhibitory activity (in words) (SGLT1) | Class (assigned class of transporter inhibited) (SGLT1) | GLUT2 inhibitory activity (in words) (GLUT2)
COc1cc(-c2[o+]c3cc(O)cc(O)c3cc2O[C@@H]2O[C@H](CO)[C@@H](O)[C@H](O)[C@H]2O)cc(OC)c1O [Malvidin-3-O-glucoside] | – | – | 10.91 | inhibition of SGLT1 | SGLT1 | –
O=C(CCc1ccc(O)cc1)c1c(O)cc(O)cc1O [Phloretin, reference compound] | 76.1 | – | – | – | – | –
Oc1cc(O)c2cc(O)c(-c3ccc(O)c(O)c3)[o+]c2c1 [Cyanidin] | 3.21 | 7.93 | – | – | – | –
O=C(/C=C/c1ccc(O)c(O)c1)O[C@@H]1C[C@](O)(C(=O)O)C[C@@H](O)[C@H]1O [chlorogenic acid] | – | – | – | no inhibitory activity | – | no inhibitory activity
COc1cc(-c2[o+]c3cc(O)cc(O)c3cc2O[C@@H]2O[C@H](CO)[C@H](O)[C@H](O)[C@H]2O)cc(OC)c1O [Malvidin 3-O-Galactoside] | – | – | 10.41 | absence of SGLT1 inhibitory activity | None | –
